According to patent publication EP0171977A1, “Phthalimide derivatives, compositions containing them and a process for preparing them” (SANKYO COMPANY LIMITED, priority 1984, dated 1986):
Like-named read-outs stand apart in the source and are kept apart here.

Tests used:
collateral blood vessels = experiment: Selective vasodilative effect on collateral blood vessels (coronary vascular resistance, method of Winburg et al.); assay type: in vivo; conditions: anaesthetized dogs, test compound 30 ug/kg intravenously vs glyceryl trinitrate 3 µg/kg; for Glyceryl trinitrate ratio RL/RT: ratio of selectivity (RL/RT) of test compound to that of glyceryl trinitrate; for Glyceryl trinitrate ratio RL: ratio of vascular resistance (RL) of test compound to that of glyceryl trinitrate
Experimental: The test animals employed in this experiment were dogs. Each animal was anaesthetized with pentobarbital and the chest was opened to expose the heart, whilst respiration was maintained artificially.
Following the method of Winburg et al. [J. Pharmacol. Exp. Ther., 168, 70-95 (1969)], the vascular resistance (RL) between two points, one at a large coronary artery on the cardiac surface and the other at a small coronary artery, was calculated by dividing the blood pressure difference between these two points by the blood flow. The peripheral resistance of the coronary artery (RT) was determined and the value RL was divided by the value RT, to give the selectivity (RL/RT).
Each compound of the invention tested was administered intravenously at a dose of 30 ug/kg body weight immediately prior to the measurement of vascular resistance. The same experiment was carried out employing glyceryl trinitrate at a dose of 3 µg/kg body weight and the results are reported in the following Table 1 as the glyceryl trinitrate ratios, i.e. the ratio between the vascular resistance of the test compound and that of glyceryl trinitrate or the selectivity of the test compound and that of glyceryl trinitrate.

[1] = test system: right atrium of a guinea pig heart; experiment: Effect on heart beat: spontaneous contraction of excised right atrium; conditions: for inhibition at 100 µg/mL: Concentration 1x10^-4 g/ml; for inhibition at 30 µg/mL: Concentration 3x10^-5 g/ml
Experimental: The right atrium of a guinea pig heart was excised and placed in a bath containing Krebs - Henseleit solution maintained at 37°C, through which was bubbled a gas containing 95% oxygen and 5% carbon dioxide. […] The results, in terms of the percentage decrease (-) or increase (+) in the rate of heart beat, for the compounds of the invention and for glyceryl trinitrate are shown in Table 2.

[2] = Cavia porcellus, Krebs - Henseleit solution, 37°C, read-out: percentage decrease (-) or increase (+) in the rate of heart beat
[3] = Cavia porcellus, Concentration 1x10^-5 g/ml, Krebs - Henseleit solution, 37°C, read-out: percentage decrease (-) or increase (+) in the rate of heart beat
[4] = Cavia porcellus, read-out: percentage decrease (-) or increase (+) in the rate of heart beat

Structure (SMILES): CN(C)CCCOc1ccc2c(c1)C(=O)N(CCO[N+](=O)[O-])C2=O [Compound No. 51, N-(2-nitrooxyethyl)-4-(3-N,N-dimethylamino-propoxy)phthalimide]
- Glyceryl trinitrate ratio RL/RT (collateral blood vessels): 1.4
- Glyceryl trinitrate ratio RL (collateral blood vessels): 1.6
- inhibition at 100 µg/mL [1, 2]: 64%
- inhibition at 10 µg/mL [1, 3]: 31%
- inhibition at 30 µg/mL [1, 2]: 58%

Structure (SMILES): O=[N+]([O-])OCC(CO[N+](=O)[O-])O[N+](=O)[O-] [Glyceryl trinitrate, reference compound]
- inhibition at 1 µg/mL [1, 4]: 0%
- inhibition at 3 µg/mL [1, 4]: -1%
- inhibition at 10 µg/mL [1, 4]: 0%
- change in the heart beat ([1]; added at doses between 10^-6 and 10 ^5 g/ml): very little or no change

Structure (SMILES): O=C1c2ccc(OCCN3CCCCC3)cc2C(=O)N1CCO[N+](=O)[O-] [Compound No. 59, N-(2-nitrooxyethyl)-4-(2-piperidinoethoxy)-phthalimide]
- Glyceryl trinitrate ratio RL/RT (collateral blood vessels): 1.6
- Glyceryl trinitrate ratio RL (collateral blood vessels): 1.2
- inhibition at 100 µg/mL [1, 2]: 74%
- inhibition at 10 µg/mL [1, 3]: 32%
- inhibition at 30 µg/mL [1, 2]: 61%

Structure (SMILES): CCN(CC)CCOc1ccc2c(c1)C(=O)N(CCO[N+](=O)[O-])C2=O [Compound No. 25, N-(2-nitrooxyethyl)-4-(2-N,N-diethylaminoethoxy)-phthalimide]
- Glyceryl trinitrate ratio RL/RT (collateral blood vessels): 1.6
- Glyceryl trinitrate ratio RL (collateral blood vessels): 1.6
- inhibition at 100 µg/mL [1, 2]: 73%
- inhibition at 10 µg/mL [1, 3]: 53%
- inhibition at 30 µg/mL [1, 2]: 67%

Structure (SMILES): CC(C)N(CCOc1ccc2c(c1)C(=O)N(CCO[N+](=O)[O-])C2=O)C(C)C [Compound No. 27, N-(2-nitrooxyethyl)-4-(2-N,N-diisopropylamino-ethoxy)phthalimide]
- Glyceryl trinitrate ratio RL/RT (collateral blood vessels): 1.4
- Glyceryl trinitrate ratio RL (collateral blood vessels): 1.8
- inhibition at 100 µg/mL [1, 2]: 71%
- inhibition at 10 µg/mL [1, 3]: 59%
- inhibition at 30 µg/mL [1, 2]: 64%

Structure (SMILES): CC(COc1ccc2c(c1)C(=O)N(CCO[N+](=O)[O-])C2=O)CN(C)C (centres unmarked) [Compound No. 54, N-(2-nitrooxyethyl)-4-(3-N,N-dimethylamino-2-methylpropoxy)phthalimide]
- Glyceryl trinitrate ratio RL/RT (collateral blood vessels): 2.1
- Glyceryl trinitrate ratio RL (collateral blood vessels): 1.7
- inhibition at 100 µg/mL [1, 2]: 62%
- inhibition at 10 µg/mL [1, 3]: 37%
- inhibition at 30 µg/mL [1, 2]: 56%
